Test results from US20060247311A1, “Methods for treating lower urinary tract disorders using alpha2delta subunit calcium channel modulators with smooth muscle modulators” (priority 2003, published 2006).
Several values for one entry are separate records, joined by “and”; a condition that tells them apart may be missing. Equal entries are not always repeated.

Experiments:
[1] = system: α2δ subunit of calcium channels; conditions: Bryans et al. (1999); cited from earlier work
[2] = preclinical and clinical studies, in contrast to gabapentin itself, cited from earlier work
[3] = system: bladder instability and bladder capacity in SCI rats; conditions: SCI rats (Cheng et al., 1995); cited from earlier work
[4] = system: reduction in bladder capacity following continuous infusion of dilute acetic acid; assay: Dilute acetic acid model, acute anesthetized in vivo model (bladder capacity by cystometry); conditions: rat, isobologram construction, i.v.; both drugs alone and low-dose combinations
Source text: Urethane anesthetized (1.2 g/kg) normal female rats were utilized in this study.
Animal Preparation: Female rats (250-300 g body weight) were anesthetized with urethane (1.2 g/kg) and a saline-filled catheter (PE-50) was inserted into the jugular vein for intravenous drug administration. […] The abdominal cavity was moistened with saline and closed by covering with a thin plastic sheet in order to maintain access to the bladder for emptying purposes. Fine silver or stainless steel wire electrodes were inserted into the external urethral sphincter (EUS) percutaneously for electromyography (EMG).
Following 30 minutes of AA infusion, 3 vehicle injections were made at 20 minute intervals to determine vehicle effects, if any.
P<0.050 was considered significant.

in vivo = conditions: female, rat, iv; for AUC(0-t): AUC0-t (Mean); for Cmax: Cmax (Mean); for Vd: Vz (Mean); for half-life: t1/2 (Mean)
[5] = system: reduction in bladder capacity following continuous infusion of dilute acetic acid; assay: Dilute acetic acid model in cats (bladder capacity, voiding efficiency); assay type: in vivo; conditions: cat, gabapentin 30 mg/kg dose alone
Experimental: The objective of this study was to determine the ability of an α2δ subunit calcium channel modulator in combination with a smooth muscle modulator to reverse the reduction in bladder capacity seen following continuous infusion of dilute acetic acid in a cat model, a commonly used model of overactive bladder.
Alpha-chloralose anesthetized (50-100 mg/kg) normal female cats (2.5-3.5 kg; Harlan) were utilized in this study.
Animals were dosed by volume of injection=body weight in kg.
Female cats (2.5-3.5 kg; Harlan) had their food removed the night before the experiment. The following morning, the cat was anesthetized with isoflurane and prepped for surgery using aseptic technique. Polyethylene catheters were surgically placed to permit the measurement of bladder pressure, urethral pressure, arterial pressure, respiratory rate as well as for the delivery of drugs. Fine wire electrodes were implanted alongside the external urethral anal sphincter. Following surgery, the cats were slowly switched from the gas anesthetic isoflurane (2-3.5%) to alpha-chloralose (50-100 mg/kg). During control cystometry, saline was slowly infused into the bladder (0.5-1.0 m/min) for 1 hour. […] After assessing the cystometric variables under these baseline conditions, the effects of test drug(s) on micturition were determined via a 3-5 point dose response protocols. […]

[6] = 100 mg/kg, gabapentin in rat plasma after 100 mg/kg gabapentin i.v., alone (Gab) or with 3 mg/kg oxybutynin (Com), group Mean, outliers excluded
[7] = 100 mg/kg, gabapentin in rat plasma after 100 mg/kg gabapentin i.v., alone (Gab) or with 3 mg/kg oxybutynin (Com), group Mean
[8] = female, rat, in vivo, iv, 3 mg/kg

CC(C)C[C@H](CN)CC(=O)O [Pregabalin, (S)-(3-aminomethyl)-5-methylhexanoic acid]
binding affinity for the α2δ subunit of calcium channels compared with gabapentin [1]: even higher binding affinity

CC(OC(=O)NCC1(CC(=O)O)CCCCC1)OC(=O)C(C)C (stereo not drawn) [XP13512]
blood levels of gabapentin across a broad range of oral doses ([2]; oral): dose proportional blood levels of gabapentin | absorption from the large intestine [2]: absorbed efficiently from the large intestine

COc1cc(CNC(=O)CCCC/C=C/C(C)C)ccc1O [capsaicin]
bladder capacity to voiding [3]: not effect bladder capacity to voiding | bladder instability [3]: reduce bladder instability

NCC1(CC(=O)O)CCCCC1 [gabapentin, 1-(aminomethyl) cyclohexaneacetic acid]
AUC0-∞ (gabapentin in rat plasma after 100 mg/kg gabapentin i.v., alone (Gab) or with 3 mg/kg oxybutynin (Com), individual animals, listed as Gab): 1.37e+07 ng·min/mL and 2.19e+07 ng·min/mL and 1.44e+07 ng·min/mL | common maximal effect / target value, return to % of saline control bladder capacity (individual responses) [4]: 31 % of saline control | common maximal effect, return to % of saline control bladder capacity (group mean data) [4]: 43 % of saline control | AUC(0-t) (in vivo; [6]): 158 µg·h/mL | AUC(0-inf) (in vivo; 100 mg/kg, AUC0-∞ (Mean), gabapentin in rat plasma after 100 mg/kg gabapentin i.v., alone (Gab) or with 3 mg/kg oxybutynin (Com), group Mean): 270 µg·h/mL | AUC(0-inf) (in vivo; 100 mg/kg, AUC0-∞, gabapentin in rat plasma after 100 mg/kg gabapentin i.v., alone (Gab) or with 3 mg/kg oxybutynin (Com), individual animals): 325 µg·h/mL | clearance (in vivo; 100 mg/kg, CL (Mean), gabapentin in rat plasma after 100 mg/kg gabapentin i.v., alone (Gab) or with 3 mg/kg oxybutynin (Com), group Mean): 6.52 mL/min/kg | clearance (in vivo; 100 mg/kg, CL, gabapentin in rat plasma after 100 mg/kg gabapentin i.v., alone (Gab) or with 3 mg/kg oxybutynin (Com), individual animals): 5.12 mL/min/kg | Cmax (in vivo; [6]): 98600 ng/mL | Tmax (in vivo; 100 mg/kg, Tmax, gabapentin in rat plasma after 100 mg/kg gabapentin i.v., alone (Gab) or with 3 mg/kg oxybutynin (Com), individual animals): 15 min | Vd (in vivo; [7]): 1.24 L/kg | half-life (in vivo; [7]): 128 min | effect on bladder capacity [5]: no significant effect

CCN(CC)CC#CCOC(=O)C(O)(c1ccccc1)C1CCCCC1 (stereo not drawn) [oxybutynin, 4-diethylaminio-2-butynyl phenylcyclohexyglycolate]
AUC0-t (Mean) [8]: 144 ng·min/mL | AUC0-∞ (Mean) [8]: 289 ng·min/mL | Vz (Mean) [8]: 1310.999 L/kg | common maximal effect / target value, return to % of saline control bladder capacity (individual responses) [4]: 31 % of saline control | common maximal effect, return to % of saline control bladder capacity (group mean data) [4]: 43 % of saline control | Tmax (in vivo; 3 mg/kg): 15 min | AUC(0-t) (in vivo; 3 mg/kg): 0.335 µg·h/mL | AUC(0-inf) (in vivo; 3 mg/kg, AUC0-∞ (Mean)): 0.41 µg·h/mL | clearance (in vivo; 3 mg/kg, CL (Mean)): 134 mL/min/kg | Cmax (in vivo; 3 mg/kg): 329 ng/mL | Vd (in vivo; 3 mg/kg): 10.1 L/kg | half-life (in vivo; 3 mg/kg): 54 min
